Reference: patent US20230391776A1, “AMIDE OXAZOLE COMPOUND” (MEDSHINE DISCOVERY INC., priority 2020, published 2023)

Key:
[1] = target: T1, human IRAK4 (Homo sapiens, UniProt Q9NWZ3); assay: In vitro IRAK4 kinase activity, 33P isotope-labeled kinase assay; assay type: biochemical
T1 construct: purchased Reaction Biology Corp
T1 sequence (Q9NWZ3 1-460): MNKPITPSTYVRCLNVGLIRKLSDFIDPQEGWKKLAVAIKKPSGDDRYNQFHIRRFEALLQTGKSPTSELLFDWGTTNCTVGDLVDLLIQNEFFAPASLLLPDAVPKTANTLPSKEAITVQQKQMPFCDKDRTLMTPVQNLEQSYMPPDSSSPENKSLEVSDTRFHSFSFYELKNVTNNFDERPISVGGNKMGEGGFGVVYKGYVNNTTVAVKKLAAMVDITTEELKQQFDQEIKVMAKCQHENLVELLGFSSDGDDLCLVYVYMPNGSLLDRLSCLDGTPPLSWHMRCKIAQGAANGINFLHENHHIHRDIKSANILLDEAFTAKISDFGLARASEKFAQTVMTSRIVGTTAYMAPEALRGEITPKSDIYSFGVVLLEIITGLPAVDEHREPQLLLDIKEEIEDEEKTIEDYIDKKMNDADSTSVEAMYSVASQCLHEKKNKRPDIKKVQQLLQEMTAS
Protocol: The IC50 values were determined using ^33P isotope-labeled kinase activity assay (Reaction Biology Corp) to evaluate the inhibitory ability of the tested compounds on human IRAK4.
Buffer conditions: 20 mM Hepes (pH 7.5), 10 mM MgCl2, 1 mM EGTA, 0.02% Brij35, 0.02 mg/mL BSA, 0.1 mM Na3VO4, 2 mM DTT, 1% DMSO.
Test procedure: At room temperature, the tested compound was dissolved in DMSO and a 10 mM solution was prepared for use. The substrate was dissolved in a newly prepared buffer solution, and the tested IRAK4 kinase was added thereto and mixed evenly. The DMSO solution dissolved with the tested compound was added to the above mixed evenly reaction solution using acoustic technique (Echo 550). After incubation for 15 minutes, ^33P-ATP was added to initiate the reaction. The reaction was carried out at room temperature for 120 minutes, and the reaction mixture was dropped on P81 ion exchange filter paper (Whatman #3698-915). The filter paper was washed repeatedly with 0.75% phosphoric acid solution, and the radioactivity of phosphorylated substrate residues on the filter paper was determined. The kinase activity data were expressed by comparing the kinase activity of the group containing the tested compound with the kinase activity of the blank group (only containing DMSO), and the IC50 value was obtained by curve fitting by Prism4 software (GraphPad), the experimental results were shown in Table 2.

[2] = test system: TMD-8 human diffuse large B lymphoma cells; assay: TMD-8 cell proliferation (Cell Titer Glo); assay type: cell-based; settings: TMD8, 72 hours
Protocol: (§1) The tumor cell lines OCI-LY10 and TMD-8 were used to detect the effect of the compound of the disclosure on inhibiting tumor cell proliferation in vitro.
TMD-8 human diffuse large B lymphoma cells, from Nanjing Cobioer Biotechnology Co., Ltd
(§2) The compound was diluted with DMSO to a final concentration of 10 mM. The compound was freshly prepared and ready for use.
(§3) a) Logarithmic growth period cells were collected, counted, resuspended with complete culture medium, the cell concentration was adjusted to an appropriate concentration (determined according to the results of cell density optimization test), inoculated on 96-well plates, and 100 μL of cell suspension was added to each well. Cells were incubated in an incubator with 37° C., 100% relative humidity and 5% CO2 for 24 hours.
(§4) b) The compound to be tested was diluted to 50 μM with culture medium and then gradient diluted for 8 times. Cells were added with 25 μL/well. The final concentrations of the compound were from […], 3-fold gradient dilution, with a total of 9 concentration points.
(§5) c) Cells were incubated in an incubator with 37° C., 100% relative humidity and 5% CO2 for 72 hours;
(§6) d) 60 μL of CTG test reagent was added to the culture medium.
(§7) e) Shaked fully and reacted in the dark for 10 min. Luminescence was measured on ENVISION and the inhibition rate was calculated.
(§8) Cell growth inhibition rate %=[(RLUv−RLUs)/(RLUv−RLUb)]×100%

[3] = test system: OCI-LY10 human diffuse large B lymphoma cells; assay: OCI-LY10 cell proliferation (Cell Titer Glo); assay type: cell-based; settings: 72 hours
Protocol: as §1
OCI-LY10 human diffuse large B lymphoma cells, from Nanjing Cobioer Biotechnology Co., Ltd
as §2, §3, §4, §5, §6, §7, §8

[4] = test system: OCI-LY3 cell line; assay: OCI-LY3 cell proliferation (CTG); assay type: cell-based; settings: Homo sapiens, 72 hours
Protocol: The tumor cell line OCI-LY3 was used to detect the effect of the compound of the disclosure on inhibiting tumor cell proliferation in vitro.
The tumor cell line used in this experiment was provided by Nanjing Cobioer Biotechnology Co., Ltd. See Table 6 below for specific information.
The OCI-LY3 cell line was cultured in the corresponding medium at 37° C. and 5% CO2, and the logarithmic growth period cells were used for experimental planking. The cells were collected and centrifuged at 800 rpm for 5 minutes, and the culture medium was re-suspended and spread in a 96-well plate. After being cultured overnight in 37° C., 5% CO2 incubator, drugs with different concentration gradients (10 μL of prepared diluent of test compound was added) were added, and incubated in 37° C., 5% CO2 incubator for 72 hours. The cell culture plate was incubated with CTG reagent at room temperature in the dark for 30 minutes and return to room temperature. CTG solution was added into the biosafety cabinet in the dark 100 μL/well, and was shaken and mixed evenly on plate shaker in the dark for 2 minutes, and incubated at room temperature in the dark for 10 minutes. The luminous value was read and recorded with Perkin Elmer Envision instrument.
The luminous value of the blank control group was subtracted from the luminous value measured at each drug concentration, the ratio of this value to DMSO group was taken as the cell inhibition rate (%). GraphPad software was used, the logarithm of drug concentration (log drug concentration) versus inhibition rate was plotted, and the IC50 value and 95% confidence value were automatically fitted and calculated by log (inhibitor) vs. response-variable slop (four parameters) algorithm of nonlinear regression by software.

| IC50 [1] | IC50 [2] | IC50 [3] | IC50 [4] | Structure (SMILES) |
| --- | --- | --- | --- | --- |
| 0.9 nM | 37 nM | 48 nM | 121 nM | Cc1cc(-c2nc(C(=O)Nc3cn4cc(C(C)(C)O)nc4cc3-c3ccccc3)co2)ccn1 [WX009] |
| 0.1 nM | 10 nM | 7 nM | 18 nM | CC(C)(O)c1cn2cc(NC(=O)c3coc(-c4ccnc(N)c4)n3)c(-c3ccccc3)cc2n1 [WX017] |
| 0.1 nM | 32.2 nM | 26 nM | 48 nM | CC(C)(O)c1cn2cc(NC(=O)c3coc(-c4ccnc(N)c4F)n3)c(-c3ccccc3)cc2n1 [WX027] |
